Laboratory results taken from US10485766B2, “Drug delivery system and method for the treatment of neuro-degenerative disease” (Aphios Corporation, priority 2011, dated 2019).

Key:
[1] = target: T1, protein kinase C (PKC) isoform epsilon (Homo sapiens, UniProt Q02156); test: PKC epsilon activation (membrane translocation) in SH-SY5Y cells; assay type: cell-based; conditions: as nanospheres; SH-SY5Y neuroblastoma cell line
T1 construct: (measured by membrane translocation) in the SH-SY5Y neuroblastoma cell line; endogenous in cells; host or cells: SH-SY5Y neuroblastoma cell line
T1 sequence (Q02156 1-737): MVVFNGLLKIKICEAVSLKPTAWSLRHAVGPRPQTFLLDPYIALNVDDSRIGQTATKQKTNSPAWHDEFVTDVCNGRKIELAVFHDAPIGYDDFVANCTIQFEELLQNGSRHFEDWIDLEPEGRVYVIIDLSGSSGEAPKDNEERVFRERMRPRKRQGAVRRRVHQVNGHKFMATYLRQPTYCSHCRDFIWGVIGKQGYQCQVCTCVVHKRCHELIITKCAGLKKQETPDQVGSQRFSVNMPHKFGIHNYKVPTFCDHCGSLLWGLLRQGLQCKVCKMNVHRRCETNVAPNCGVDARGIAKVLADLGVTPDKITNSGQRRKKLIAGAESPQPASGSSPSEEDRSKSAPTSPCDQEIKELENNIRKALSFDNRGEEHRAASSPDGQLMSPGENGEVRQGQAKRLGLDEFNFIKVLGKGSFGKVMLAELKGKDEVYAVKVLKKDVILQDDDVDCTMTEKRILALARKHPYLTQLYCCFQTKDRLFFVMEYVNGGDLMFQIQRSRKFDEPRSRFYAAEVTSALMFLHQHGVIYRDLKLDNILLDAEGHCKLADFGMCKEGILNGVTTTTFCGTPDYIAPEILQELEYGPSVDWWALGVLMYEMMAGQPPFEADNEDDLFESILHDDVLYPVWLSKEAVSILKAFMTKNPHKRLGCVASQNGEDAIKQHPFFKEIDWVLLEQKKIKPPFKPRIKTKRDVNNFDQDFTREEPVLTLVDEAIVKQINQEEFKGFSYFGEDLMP
Excerpt: (§1) These events are well-described cell and pharmacological events associated with prevention of beta-secretase mediated formation of beta-amyloid, the presumptive cause of dementia in human Alzheimer's disease and in the sweAPP/PS1 mouse model of Alzheimer's disease.

[2] = system: alpha-secretase processing of amyloid precursor protein (APP); test: alpha-secretase processing of APP to s-APP alpha in SH-SY5Y neuroblastoma cell line; assay type: cell-based; conditions: as nanospheres
Excerpt: as §1

[3] = system: Mouse strain B6C3-Tg carrying mutant sweAPP and PS1 genes; test: Water maze studies; assay type: in vivo; conditions: 5 micrograms/mouse on alternative days orally in oil formulation; sweAPP/PS1 mice, 5-6 months of age; versus control animals
Excerpt: Mouse strain B6C3-Tg carrying mutant Swedish Amyloid precursor protein (sweAPP) and PS1 (presenilin-1) genes associated with early onset Alzheimer's disease were subjected to water maze tests at 5-6 months of age.

[4] = target: T2, protein kinase C (PKC) isoform alpha (Homo sapiens, UniProt P17252); test: PKC alpha activation (membrane translocation) in SH-SY5Y cells; assay type: cell-based; conditions: as nanospheres; SH-SY5Y neuroblastoma cell line
T2 construct: (measured by membrane translocation) in the SH-SY5Y neuroblastoma cell line; endogenous in cells; host or cells: SH-SY5Y neuroblastoma cell line

[5] = Concentrations of Bryostatin in different solvents (normal phase HPLC); assay type: physicochemical; conditions: for Concentration: theoretical 2.5 mg/100 mL
Method: Isopropyl alcohol, Extra Virgin olive oil, sesame oil, and vegetable oil were all used as solvents.
Thirty microliters of the stock solution were placed in each of 4 clean, dry HPLC vials. The ethanol was allowed to evaporate, leaving 25 micrograms in the vial. Then, 1.0 mL of the solvent was placed in the vial and vortexed to ensure proper mixing. These samples were then injected on a normal phase HPLC system, with a gradient of 10%-70% isopropyl alcohol in hexane as the mobile phase (specifically developed for this experiment).
The concentration of each vial theoretically should be 2.5 mg/100 mL.
The reason for the higher concentrations than the standard (isopropyl alcohol) is due to the baseline. While attempting a baseline subtraction for each oil, there was negative absorbance so the blank IPA sample was subtracted from each sample's baseline. While this incorporates a little more area for integration, the amount of Bryostatin in the oil was quantifiable.

For CCC/C=C/C=C/C(=O)O[C@H]1/C(=C/C(=O)OC)C[C@H]2C[C@H]([C@@H](C)O)OC(=O)C[C@H](O)C[C@@H]3C[C@H](OC(C)=O)C(C)(C)[C@](O)(C[C@@H]4C/C(=C/C(=O)OC)C[C@H](/C=C/C(C)(C)[C@]1(O)O2)O4)O3 [Bryostatin-1], the “activation of PKC epsilon (membrane translocation)” value [1] was “activate”, the “alpha-secretase processing of APP to s-APP alpha” value [2] was “induce alpha-secretase processing of amyloid precursor protein (APP) to s-APP alpha” and the “protection against memory loss in water maze” value [3] was “significant protection”. The “activation of PKC alpha (membrane translocation)” value [4] was “activate”, the Concentration ([5]; Solvent Extra Virgin Olive Oil) was 2.9945 mg/100 mL and the Concentration ([5]; Solvent Extra Virgin olive with mixed natural tocopherol antioxidants, lecithin and medium chain triglyceride emulsifiers) was 2.4431 mg/100 mL. The Concentration ([5]; Solvent Isopropyl Alcohol (standard)) was 2.6035 mg/100 mL, the Concentration ([5]; Solvent Vegetable Oil) was 2.5475 mg/100 mL and the solubility in oils ([5]; different types of oil) was “soluble”.
